Experimental data reported in ChEMBL document CHEMBL3507680, “University of Dundee, Gates Library screen for HepG2 cell viability”.
“And” between values parts separate entries of the source, which are not always exact repeats. Equal entries are not always repeated.

Assays:
[1] = Human HepG2 cell viability assay in 384 well format; type: toxicity, cell-based; design: dose 125 nL, time 70.5 hour; concentration not given beside the values; details: HepG2 cells, read-out: Inhibition
[2] = Human HepG2 cell viability dose-response assay; type: toxicity, cell-based

## O=C(Cn1cc(-c2ccccc2)ncc1=O)Nc1nc(C2CC2)n[nH]1
[1]
  cytotoxicity at 70.5 h: 99.8%
[2]
  BOTTOM: -8.692 and -5.853
  HILLSLOPE: 2.68 and 2.241
  TOP: 101 and 102.4
  pXC50: 5.614 and 5.594

## CCS(=O)(=O)N1CCc2ccc(NC(=O)Nc3cccc(SC)c3)cc21
[1]
  cytotoxicity at 70.5 h: 63.9%
[2]
  BOTTOM: -6.506 and -6.611
  HILLSLOPE: 1.266 and 1.157
  TOP: 100
  pXC50: 5.029 and 4.966

## CCc1ccc(-c2cc(C(F)(F)F)nc(N3CCC(N)CC3)n2)cc1
[1]
  cytotoxicity at 70.5 h: 101%
[2]
  BOTTOM: 0.817 and 1.062
  HILLSLOPE: 8.779 and 6.129
  TOP: 102.2 and 102.5
  pXC50: 5.566 and 5.542

## Cc1nc(Nc2nccs2)cc(C2CCCN2)n1.Cl (stereo not given)
[1]
  cytotoxicity at 70.5 h: 101%
[2]
  BOTTOM: 11.4 and 11.68
  HILLSLOPE: 4.445 and 3.614
  TOP: 100.1 and 100.5
  pXC50: 5.52 and 5.57

## COc1ccc(CNC(Cc2ccsc2)c2ccc(C)cn2)c(OC)c1 (stereo not given)
[1]
  cytotoxicity at 70.5 h: 85.3%
[2]
  HILLSLOPE: 2.726 and 2.464
  TOP: 91.22 and 91.65
  pXC50: 5.292 and 5.344

## CC(C)CNc1cc(-c2c[nH]nc2C2CCN(C(=O)C3CC3)C2)ccn1 (stereo not given)
[1]
  cytotoxicity at 70.5 h: 95.1%
[2]
  BOTTOM: -0.825 and -1.513
  HILLSLOPE: 7.855 and 3.586
  TOP: 97.39 and 97.86
  pXC50: 6.385 and 6.436

## CC(C)Nc1cc(-c2c[nH]nc2C2CCN(C(=O)C3CC3)C2)ccn1 (stereo not given)
[1]
  cytotoxicity at 70.5 h: 96.7%
[2]
  HILLSLOPE: 3.535 and 2.719
  TOP: 97.3 and 97.69
  pXC50: 6.519 and 6.486

## CC1(C)Cc2nc(C(C)(C)C)ncc2C(NC(=O)C2(N)CC2)C1 (stereo not given)
[1]
  cytotoxicity at 70.5 h: 105%
[2]
  BOTTOM: 0
  HILLSLOPE: 0
  TOP: 0
  pXC50: < 4.53

## Clc1ccccc1C1(c2ccnc(C3CCCC3)n2)CCNCC1
[1]
  cytotoxicity at 70.5 h: 73%
[2]
  BOTTOM: 17.52 and 27.16
  HILLSLOPE: 2.801 and 2.528
  TOP: 108.2 and 108.3
  pXC50: 5.086 and 5.104

## COc1ccccc1N1CCN(C(=O)CSCC2CC2)C(C)C1 (stereo not given)
[1]
  cytotoxicity at 70.5 h: 97.2%
[2]
  BOTTOM: 0
  HILLSLOPE: 0
  TOP: 0
  pXC50: < 4.53

## CC(C)c1ccc(CN2C(=O)C3(CCNCC3)Nc3ccccc32)cc1
[1]
  cytotoxicity at 70.5 h: 105%
[2]
  BOTTOM: -7.959 and -9.531
  HILLSLOPE: 9.317 and 9.377
  TOP: 102.3 and 101.9
  pXC50: 4.989 and 5.005

## O=C(C[C@@H]1COC[C@H]2CN(C3CCOCC3)C[C@@H]12)Nc1cnccn1
[1]
  cytotoxicity at 70.5 h: 76.4%
[2]
  BOTTOM: 0
  HILLSLOPE: 0
  TOP: 0
  pXC50: < 4.53

## CCCc1nc2c(c(C)c(C)n2Cc2ccccn2)c(N)c1CC
[1]
  cytotoxicity at 70.5 h: 80.2%
[2]
  BOTTOM: 13.8 and 17.26
  HILLSLOPE: 1.43 and 1.529
  TOP: 100
  pXC50: 5.166 and 5.178

## CSc1ccc(NC(=O)Nc2ccc3c(c2)N(S(C)(=O)=O)CC3)cc1
[1]
  cytotoxicity at 70.5 h: 68.5%
[2]
  BOTTOM: -10.17 and -8.332
  HILLSLOPE: 0.8924 and 0.8709
  TOP: 100
  pXC50: 4.975 and 4.922

## C=Cc1ccc(CN2C(=O)C3(CCNCC3)Nc3ccccc32)cc1
[1]
  cytotoxicity at 70.5 h: 102%
[2]
  BOTTOM: -4.877 and -3.437
  HILLSLOPE: 10.74 and 12.71
  TOP: 102
  pXC50: 5.033 and 5.016

## Cc1cccc(CN2CCCC2c2cccc(Nc3nccs3)n2)c1 (stereo not given)
[1]
  cytotoxicity at 70.5 h: 84.1%
[2]
  HILLSLOPE: 2.773 and 1.557
  TOP: 82.62 and 100
  pXC50: 6.512 and 6.485

## CC(C)n1ccc(C(=O)NCC(O)c2c(Cl)cccc2Cl)n1 (stereo not given)
[1]
  cytotoxicity at 70.5 h: 65.8%
[2]
  BOTTOM: 0
  HILLSLOPE: 0
  TOP: 0
  pXC50: < 4.53

## Cc1cccc(C)c1Nc1noc2c1CN(C(=O)c1ccnn1C)CC2
[1]
  cytotoxicity at 70.5 h: 69.8%
[2]
  BOTTOM: -5.714 and -2.53
  HILLSLOPE: 1.878 and 1.75
  TOP: 100
  pXC50: 4.825 and 4.807

## COC[C@H]1CCC[C@]12CN(Cc1cccc(C)n1)CCO2
[1]
  cytotoxicity at 70.5 h: 63.1%
[2]
  BOTTOM: 0
  HILLSLOPE: 0
  TOP: 0
  pXC50: < 4.53

## O=C(c1cccc2cccnc12)N1CC[C@@]2(CCCO2)[C@@H](O)C1
[1]
  cytotoxicity at 70.5 h: 74.5%
[2]
  BOTTOM: -1.598 and -1.635
  HILLSLOPE: 1.904 and 1.967
  TOP: 100
  pXC50: 4.773 and 4.744

## Cc1cc(C)cc(C(=O)NCCCNc2ncccn2)c1
[1]
  cytotoxicity at 70.5 h: 101%
[2]
  BOTTOM: -7.868 and -9.506
  HILLSLOPE: 17.28 and 6.436
  TOP: 100.1 and 99.9
  pXC50: 5.413

## CC(C)OCCN1CCC(Nc2nccnc2C#N)CC1
[1]
  cytotoxicity at 70.5 h: 62.9%
[2]
  BOTTOM: -6.463 and -12.72
  HILLSLOPE: 1.108 and 0.9682
  TOP: 100
  pXC50: 5.071 and 5.086

## CN(C(=O)[C@H]1CSCN1C(=O)OC(C)(C)C)C1CC1
[1]
  cytotoxicity at 70.5 h: 73.6%
[2]
  BOTTOM: 0
  HILLSLOPE: 0
  TOP: 0
  pXC50: < 4.53

## COc1cc(NC(=O)C2CC(=O)N(c3cccc(Br)c3)C2)ncn1 (stereo not given)
[1]
  cytotoxicity at 70.5 h: 91.5%
[2]
  BOTTOM: 13.61 and 20.88
  HILLSLOPE: 5.533 and 3.735
  TOP: 100.7 and 101.2
  pXC50: 5.491 and 5.506

## COCc1noc(-c2ccc(N(C)Cc3ncccc3C)nc2)n1
[1]
  cytotoxicity at 70.5 h: 73.3%
[2]
  BOTTOM: -13.69 and -12.76
  HILLSLOPE: 1.85 and 1.799
  TOP: 100
  pXC50: 5.092

## CC(C)c1cc(NC(=O)Cn2cnc3ccccc3c2=O)[nH]n1
[1]
  cytotoxicity at 70.5 h: 104%
[2]
  BOTTOM: -4.443 and -6.453
  HILLSLOPE: 2.259 and 2.3
  TOP: 101.3 and 101.4
  pXC50: 5.61 and 5.595

## c1cncc(CN2CCCn3nnc(CN4CCCCC4)c3C2)c1
[1]
  cytotoxicity at 70.5 h: 65.6%
[2]
  BOTTOM: 0
  HILLSLOPE: 0
  TOP: 0
  pXC50: < 4.53

## CC(C)N(C)C(=O)c1ccc(CNc2ccncc2Cl)cc1
[1]
  cytotoxicity at 70.5 h: 74.8%
[2]
  BOTTOM: 0
  HILLSLOPE: 0
  TOP: 0
  pXC50: < 4.53

## COc1nn(C)c2c1CCCN(C(=O)c1ccc3c(c1)OCO3)C2.O=C(O)C(F)(F)F
[1]
  cytotoxicity at 70.5 h: 77.9%
[2]
  BOTTOM: 0
  HILLSLOPE: 0
  TOP: 0
  pXC50: < 4.53

## CN1CC(c2ccccc2)CC12CCN(C(=O)c1ccc(F)cc1)CC2 (stereo not given)
[1]
  cytotoxicity at 70.5 h: -4.24%

## Cc1noc(C2CN(S(C)(=O)=O)Cc3ccnn3C2)n1 (stereo not given)
[1]
  cytotoxicity at 70.5 h: -7.77%

## Cc1cnc(N2CCCC3(COCCN(c4ccc(C)nn4)C3)C2)nc1 (stereo not given)
[1]
  cytotoxicity at 70.5 h: -2.56%

## Cc1nc(N2CCN(c3ccccc3)CC2)c2c(n1)c(C)nn2C
[1]
  cytotoxicity at 70.5 h: -2.17%

## Cc1cnn(CCNCC(O)COc2c(C)ccc(C)c2C)c1 (stereo not given)
[1]
  cytotoxicity at 70.5 h: -5.42%

## CCCS(=O)(=O)N1C[C@@H](Oc2ncccc2F)[C@H]2OCCC[C@H]21
[1]
  cytotoxicity at 70.5 h: -10.6%

## CCC(CNC(C)=O)(OC)c1ccccc1 (stereo not given)
[1]
  cytotoxicity at 70.5 h: -6.06%

## CC(C)(C)OC(=O)N1CCCC[C@H]1C(=O)NCc1nccs1
[1]
  cytotoxicity at 70.5 h: -9.82%

## Cc1cccc(-n2ncc3c(=O)n(CCN4CCCCC4)cnc32)c1C
[1]
  cytotoxicity at 70.5 h: 28%

## N#Cc1ccc(SCCOCCO)c(Cl)c1
[1]
  cytotoxicity at 70.5 h: -5.04%

## Cc1nc2c(c(N3CCC4(CCCNC4=O)C3)n1)CCC2 (stereo not given)
[1]
  cytotoxicity at 70.5 h: -4.16%

## CC(C)NC(=O)C1CN(C(N)=O)Cc2ccnn2C1 (stereo not given)
[1]
  cytotoxicity at 70.5 h: -17.9%

## CCOCCC1(CNC(=O)c2ccc(C)nc2)CCCC1
[1]
  cytotoxicity at 70.5 h: 0.601%
